Measured values taken from PubChem BioAssay AID493240 (Broad Institute, 2011).

System: SK-MEL-5 viability, ATP luminescence (CellTiter-Glo), 24 h
Assay: SK-MEL-5 parental cell viability loss, dose response, orthogonal assay for MITF inhibitor project, CellTiter-Glo, cherry-picked, set 3 (AID 493240)

| Compound | AC50 [µM] |
| --- | --- |
| CCOc1ccc(-n2c(-c3ccc(OC)cc3)c[n+]3c2CCCCC3)cc1 | 19.6 |
| CCN1CCN(c2ccc(NC(=O)c3ccc([N+](=O)[O-])o3)cc2Cl)CC1 | 24.8 |
| CC(C)n1cc(/C=C/c2cc[n+](C)cc2)c2ccccc21 | 23 |
| COc1cc(NC(=O)c2[nH]cnc2C(N)=O)cc(C(=O)Nc2cccc(C(F)(F)F)c2)c1 | 18.2 |
| COc1ccc(C(=O)/C=C/C(=O)N(CC(=O)NC2CCCCC2)Cc2ccc(F)cc2)c(O)c1 | 12.8 |
| Cc1ccc(C(O)(c2ccc(C)c(C)c2)C2CN3CCC2CC3)cc1C (stereo unspecified) | 17.1 |
| O=[N+]([O-])c1ccc(/C=N/n2cnc3ccccc32)s1 | 17.9 |
| Cc1[nH]nc2nc(SCC(=O)NCCC3=CCCCC3)n(-c3ccc(Br)cc3)c(=N)c12 | 21.5 |
| N=c1n(CCN2CCCC2)c2ccccc2n1CC(O)c1ccc(Cl)c(Cl)c1 (stereo unspecified) | 16.3 |
| CC1CCCC(NCC(O)COC(c2ccc(F)cc2)c2ccc(F)cc2)C1C (stereo unspecified) | 20.9 |
| COC(=O)C1=C(C)N(Cc2ccccc2)C(=NCc2ccccc2)N[C@H]1c1ccccc1 | 26.8 |
| COc1ccccc1NS(=O)(=O)c1cc(NC(=O)c2ccc(Cl)nc2)ccc1Cl | 24.3 |
| O=C(COc1ccccc1)N/N=C/c1ccc([N+](=O)[O-])o1 | 22.9 |
| O=C(Nc1ccccc1)NN(C(=O)CCl)c1ccccc1 | 28.7 |
| COc1cc(NC(=O)c2ccc([N+](=O)[O-])o2)ccc1NC(=O)c1cccs1 | 20.1 |
| N#CCc1ccc(NC(=O)/C=C/c2ccc([N+](=O)[O-])o2)cc1 | 31.2 |
| CCN(CC)CCNC(=O)c1c(C)n(-c2ccccc2)c2cc(Br)c(OC)cc12 | 19.8 |
| COc1cc(NC(=O)COc2ccccc2[N+](=O)[O-])ccc1NC(=O)c1cccs1 | 26.4 |
| CCCC(=O)N1CCN(c2ccc(NC(=O)c3ccc([N+](=O)[O-])o3)cc2)CC1 | 24.2 |
| CC(C)Oc1ccc(C(CCNCc2ccc(O)cc2)c2ccccc2)cc1 (stereo unspecified) | 16.5 |
| O=[N+]([O-])c1ccc(S(=O)(=O)CC(CN2CCCCC2)N2CCCCC2)cc1 (stereo unspecified) | 29.8 |
| CCN(CC)CCNC(=O)c1ccc(NC(=O)c2cccc(S(=O)(=O)N3c4ccccc4CC3C)c2)cc1 (stereo unspecified) | 22.5 |
| Cc1ccc(-c2cn(-c3ccc(SC(F)F)cc3)c3[n+]2CCC3)cc1 | 28 |
| COCCN(CC(=O)NC1CCCCC1)C(=O)/C=C/C(=O)c1ccc(OC)cc1O | 10.5 |
| O=C(CCl)N(c1ccccc1)C1CCCCC1 | 32.3 |
| OC(CNCC(c1ccc(Cl)cc1Cl)c1c[nH]c2ccccc12)c1ccccc1 (stereo unspecified) | 16.8 |

| Compound | AC50 [µM] |
| --- | --- |
| Cc1cccc(NC2=C(NC(=O)c3ccccc3)C(=O)c3ccccc3C2=O)c1 | 19.7 |
| Nc1c2c(=O)oc(-c3ccccc3)cc2nn1-c1ccccc1 | 2.49 |
| CCN(CC)CCNC(=O)C1CCN(S(=O)(=O)c2c(C)noc2/C=C/c2ccccc2F)CC1 | 28.8 |
| O=C1/C(=C/c2ccccc2[N+](=O)[O-])COc2ccccc21 | 34.1 |
| Cc1ccc(Cn2c(=N)n(CC(=O)c3ccc([N+](=O)[O-])cc3)c3ccccc32)cc1 | 21.9 |
| CCN1CCN(c2ccc(S(=O)(=O)N3CCCCC3)cc2NC(=O)/C=C/c2cccc(OC)c2OC)CC1 | 24.7 |
| O=C(Nc1ccc(N2CCN(C(=O)c3ccccc3)CC2)cc1)c1ccc([N+](=O)[O-])o1 | 28.3 |
| COc1cc2c(cc1OC)C(c1ccccc1)N(C(=O)CCl)CC2 (stereo unspecified) | 22.6 |
| Cc1cc(C)c2nc(N3CCC(C(=O)NCCCN4CC(C)CC(C)C4)CC3)sc2c1 (stereo unspecified) | 18.3 |
| Cc1[nH]c2ccccc2c1C(=O)CCl | 22.1 |
| COc1ccc(C(=O)/C=C/C(=O)N(CC(=O)NC2CCCCC2)Cc2ccccc2)c(O)c1 | 12.9 |
| COc1ccc(-n2cc(-c3ccc(C)cc3)[n+]3c2SCC3)cc1 | 19.9 |
| Cc1ccc(C(=O)N/N=C/c2ccc([N+](=O)[O-])s2)cc1 | 26.7 |
| CC1CCN(CC(CS(=O)(=O)c2ccc([N+](=O)[O-])cc2)N2CCC(C)CC2)CC1 (stereo unspecified) | 27.3 |
| CCN1c2ccccc2NC2N=C(OC)C(c3ccccc3)C21 (stereo unspecified) | 14 |
| CC1(C)CC(NC(=O)c2ccc(Cl)c(S(=O)(=O)N(Cc3ccccc3)c3ccccc3)c2)CC(C)(C)N1 | 23.3 |
| COc1ccc(S(=O)(=O)N(C(C)=O)c2ccc(OC(C)=O)c3ccccc23)cc1[N+](=O)[O-] | 17 |
| Cc1oc(-c2ccc(Cl)cc2)nc1CN1CCC(C(=O)NCCCN2CCCC(C)C2)CC1 (stereo unspecified) | 17.1 |
| O=C1C(Cl)=C(Nc2ccccc2)C(=O)c2ccccc21 | 6.7 |
| COc1ccccc1CNCC(O)Cn1c2ccccc2c2ccccc21 (stereo unspecified) | 19 |
| COc1ccccc1C(=O)Nc1nc(-c2ccc(S(=O)(=O)N3CCOCC3)cc2)cs1 | 20.8 |
| Nc1nc2ccccc2n1/N=C/c1ccc([N+](=O)[O-])s1 | 25.8 |
| CN(C)CCCN(C(=O)CCc1ccccc1)c1nc2ccc(Br)cc2s1 | 16.5 |
| CS(=O)(=O)c1ccc(S(=O)CC(=O)OCc2ccccc2)c([N+](=O)[O-])c1 (stereo unspecified) | 28.3 |
| O=C(NC1=C(Nc2ccc(Cl)cc2)C(=O)c2ccccc2C1=O)c1ccccc1 | 11.2 |
